How the values were obtained:
[1] = Supercritical fluid extraction of Au(III) as AuCl4^− from filter paper, gold determined by atomic absorption spectroscopy; conditions: observed after Au(III) SFE runs, 20 mg ligand
Experimental: Gold Au(III) extraction by the ligand of the comparative Example (a) was investigated employing a BDH Gold (III) standard containing 1000 ppm Au(III) (aqueous AuCl4^−). Thus 60 μl of solution Au(III) containing 3.05×10^−7 moles Au(III) was applied to a 3 cm diameter filter paper. The filter paper was allowed to dry and then placed in a glass tube (2 cm×0.5 cm i.d.), plugged with glass wool at both ends. 20 mg of ligand of the comparative Example (a) (in excess of over 200 fold over Au(III) level) was then placed in the same glass tube and plugged with glass wool.
The extraction vessel was statically extracted for 20 minutes and then dynamically extracted into a collecting solvent of 4 ml methanol for 15 minutes (0.8 ml CO2/minute flow rate). The methanol solution was then made up to 10 ml using additional methanol. Levels of gold in solution were then determined by atomic absorption spectroscopy. The procedure was carried out at different pressures from 200-400 atm. The following extraction percentages were obtained:
The procedure in Example 5(a) was repeated except the temperature of the extraction procedure was varied from 60-120° C., while maintaining the pressure of the extractor at 400 atm. The following results were obtained:
The procedure in Example 6 was repeated with the ligand from Example 1 being used in place of the ligand of the Comparative Example (a). The following % extraction values were obtained at differing pressures for extraction of Au(III):
The procedure of Example 7 was repeated employing the ligand of Example 2 in place of the ligand of Example 1 and utilising 50 μl Au(III) standard solution in place of 60 μl to give the following % extraction results at differing pressures of SF—CO2 at 60° C.

[2] = Solubility of the ligand in supercritical CO2 (weight loss of glass tube after static SFE); type: physicochemical; conditions: 60° C.; for Solubility in SF—CO2: approx. 60 mg ligand, 2.2 ml 100% SF—CO2, static 30 minutes, 200 and 300 atmospheres
Experimental: The solubility of the ligand of the comparative Examples (a)-(c) in supercritical CO2 was compared with the solubilities of the ligands of Examples 1 and 2 and 3 in supercritical CO2.
In each case, a weighed amount of the ligand of the respective comparative Example of approximately 60 mg was placed in a glass tube (2 cm×0.5 cm i.d.) and plugged with glass wool at both ends. The glass tube was placed inside the extraction vessel and statically extracted for 30 minutes. The inlet valve for SF—CO2 was then closed and the outlet valve opened into a collecting solution. The loss of weight of the glass tube after SFE corresponded to the solubility of the ligand in 2.2 ml 100% SF—CO2. The procedure was carried out at 60° C. and two different pressures namely 200 and 300 atmospheres.

| Solubility in SF—CO2 (ligand remaining in glass tube after extraction runs) [1] | SMILES | Solubility in SF—CO2 [2] | solubility at 30 min ([2]; supercritical CO2, organic solvent or mixture, thermodynamic from solid, larger amounts of ligand, both pressures (200 and 300 atmospheres), read-out: Solubility in SF—CO2) [mM] |
| --- | --- | --- | --- |
| poor solubility | NC(=S)Nc1cc(C(F)(F)F)cc(C(F)(F)F)c1 [Comparative Example (a)] |  |  |
| poor solubility | CCCCCCCCNC(=S)NC [Comparative Example (b), N-methyl,N′-octyl thiourea] |  |  |
| poor solubility | CCCCCCCCCCCCNC(=S)NC [Comparative Example (c), N-methyl, N′-dodecyl thiourea] |  |  |
|  | FC(F)(F)c1cc(NC(=S)NCC(F)(F)C(F)(F)C(F)(F)F)cc(C(F)(F)F)c1 [Example 1] | excellent solubility |  |
|  | FC(F)(F)CNC(=S)Nc1cc(C(F)(F)F)cc(C(F)(F)F)c1 [Example 2] | excellent solubility |  |
|  | FC(F)(F)c1cc(NC(=S)NCC(F)(F)C(F)(F)C(F)(F)C(F)(F)C(F)(F)C(F)(F)C(F)(F)F)cc(C(F)(F)F)c1 [Example 3(a)] | excellent solubility |  |
|  | CNC(=S)NCC(F)(F)C(F)(F)C(F)(F)F [Example 3(b), N-methyl, N′-heptafluorobutyl thiourea] | excellent solubility | > 700 |

From patent US6866833B1, “Substituted thiourea complexing agent and a method for extracting a noble metal from a matrix using the complexing agent” (University College Cork, priority 1999, dated 2005)
